Measurements published in patent US8729060B2, “Macrocyclic polyoxazole compounds and use thereof” (Rutgers, the State University of New Jersey, priority 2007, dated 2014).
pIC50: −log10 of the molar value.

Experiments:
murine leukemia P388 = experiment: MTT assay (Test C), murine leukemia P388; assay type: cell-based; settings: Mus musculus, 96 h, 4 days, read-out: cytotoxic activity IC50
Procedure: (§1) Test C. Evaluation of G-Quadruplex Stabilizers Using the MTT Assay.
(§2) Cell lines are selected based upon one or more factors including data on their relative telomerase activity, varied organ sites, available comparative data, and their ability to form solid tumors in athymic nude mice. The advantage of an MTT assay is that the cytotoxic/cytostatic activities can be readily determined. Cells are cultured for 4 days at 37° C. followed by addition of MTT (3-[4,5-dimethylthiozol-2-yl]-2,5-diphenyltetrazolium bromide (Sigma) (0.1 mg/ml). Cells are treated with MTT for 3 hrs and then dissolved in 100 μl 100% DMSO. Absorbance is measured at OD570 using a microplate reader (Model 3550 UV from BIO-RAD). The MTT value is normalized to OD570 of cells treated with Cellfectin alone. Stock solutions of each compound are prepared. MTT assays are performed using spectrometric analysis and 96 well plates. Compound 258, a representative compound of formula I, was evaluated against a variety of cell lines using the MTT assay compound.

[1] = tested on: human lymphoblastoma RPMI 8402; experiment: MTT assay (Test C), human lymphoblastoma RPMI 8402; assay type: cell-based; settings: 96 h, RPMI 8402, MTT, 4 days, read-out: cytotoxic activity IC50
Procedure: as §1, §2

[2] = tested on: human nasopharyngeal carcinoma KB3-1; experiment: MTT assay (Test C), human nasopharyngeal carcinoma KB3-1; assay type: cell-based; settings: KB 3-1, 96 h, KB3-1, MTT, 4 days, read-out: cytotoxic activity IC50
Procedure: as §1, §2

telomerase = settings: read-out: telomerase inhibitory activity IC50; cited from earlier work
SK-N-AS = settings: read-out: cytotoxicity IC50; cited from earlier work
LAN5 = settings: read-out: cytotoxicity IC50; cited from earlier work
WAC2 = settings: read-out: cytotoxicity IC50; cited from earlier work
LAN1 = settings: read-out: cytotoxicity IC50; cited from earlier work
MiaPaCa = settings: read-out: cytotoxicity IC50; cited from earlier work
K62 leukemia cells = settings: cited from earlier work
[3] = tested on: natural bone marrow CD34-positive cells; settings: cited from earlier work
[4] = tested on: human breast cancer cell lines HBC-4, BSY-1, HBC-5, MCF-7, and MDA-MB-231; settings: range over HBC-4, BSY-1, HBC-5, MCF-7, MDA-MB-231; cited from earlier work

CC(C)[C@@H]1NC(=O)c2coc(n2)-c2coc(n2)-c2coc(n2)C/C=C/c2coc(n2)-c2coc(n2)-c2coc1n2 [Compound 258, Macrocyclic Hexaoxazole] gave a pIC50 (murine leukemia P388) of 7.35, a pIC50 [1] of 7.60 and a pIC50 [2] of 7.60. The melting point was 195 to 197 °C (dec.).
For Cc1oc2nc1-c1nc(co1)-c1nc(co1)-c1nc(co1)-c1nc(co1)-c1nc(co1)C1=NC(CS1)c1nc-2c(C)o1 (stereo not shown) [Telomestatin], the pIC50 (telomerase) is listed as 8.30, the pIC50 (SK-N-AS) is listed as 6.10 and the pIC50 (LAN5) is listed as 5.60. For the same compound, the pIC50 (WAC2) was 5.49, the pIC50 (LAN1) was 5.40 and the pIC50 (MiaPaCa) was 6.30. The “effect on plating efficiency” value (K62 leukemia cells) was “does suppress the plating efficiency” and the “effect on BFU-E and CFU-GM” value [3] was “much lesser effect”.
For CC[C@H](C)[C@@H]1NC(=O)c2nc(oc2-c2ccccc2)-c2csc(n2)-c2coc(n2)-c2coc(n2)-c2coc(n2)CNC(=O)[C@@H](C(C)C)NC1=O [YM-216391], the GI50 [4] is listed as 15 to 33 nM.
